Bridge positions count the residues as written; N and C are the ends. Peptide text beside a SMILES is read from it.
How the values were obtained:
[1] = Circular dichroism spectra, alpha-helical structure in solution; assay type: physicochemical
Text: The circular dichroism (CD) spectra of MCT-I and salmon calcitonin (designated "SCT-I", available from Armour Pharmaceuticals, Kankakee, IL and used without further purification) from 250 nm to 205 nm show minima at 222 nm and 208 nm characteristic of α-helical structure. For MCT-I, the mean residue molar ellipticity at 222 nm, [θ]222, was -7,800 deg.cm^2 /dmol (10^-4 M peptide, 0.02M sodium phosphate buffer, 0.16M KCl, pH 7.4), from which the α-helicity was estimated to be 30% (assuming no contribution to CD by β-sheet structure) according to the method of Morrisett, J. D., J. S. K. Davis, H. J. Pownall, and A. M. Gotto, Biochemistry 12:1290 (1973). […] Similarly, the value of [θ]222 for solutions of SCT-I over the same concentration range and under the same conditions also remains constant at -4,600 deg.cm^2 /dmol, leading to an estimate of 20% α-helix for this peptide. In 50% trifluoroethanol, a structure promoting solvent, both MCT-I and SCT-I were estimated to be 50% α-helical at a concentration of 5×10^-5 M, as was found by Brewer, H. D. and H. Edelhoch, J. Biol. Chem. 245:2402 (1970) for porcine calcitonin (PCT) in 50% 2-chloroethanol.
The circular dichroic spectra of MCT-II solutions buffered with 0.02M sodium phosphate at pH 7.4 and containing 0.16M KCl were measured from 250 nm to 200 nm using a Carey 60™ spectropolarimeter (Varian Instruments, Palo Alto. CA). The spectrometer cells used were washed with concentrated nitric acid, rinsed thoroughly with deionized water, then treated with a 1% aqueous polyethylene glycol (Mr 15K-20K) solution for 1 hr and finally rinsed with water before using. The molar ellipticities obtained from the circular dichroic spectra of MCT-II from 240 nm to 204 nm were fitted by a linear combination of three different basis functions derived from the spectra described by Greenfield, N. and G. D. Fasman, Biochem. 8:4108(1969) for α-helix, β-sheet, and random coil structure. […] Since there was no significant contribution to the spectrum from β-sheet structure, we used the mean residue molar ellipticity at 222 nm, [ θ]222, to estimate changes in α-helical structure (Morrisett et al., supra). The results are given in FIG. 3; each data point represents the mean from two experiments. […] [θ]222 for the monomer was -5,200 deg.cm^2 /dmol (20% α-helix) and -10,475 deg.cm^2 /dmol (35% α-helix) for the trimer. […] This dissociation constant corresponds to a 4.5 kcal/mol of stabilization energy per monomer for trimerization. Under similar conditions and over the same concentration range [θ]222 for MCT-I and SCT-I remained constant at -7,800 deg.cm^2 /dmol and -4,600 deg.cm^2 /dmol, respectively.

[2] = Binding to single bilayer egg lecithin vesicles; assay type: physicochemical; conditions: for Adsorption to the surface of single bilayer egg lecithin vesicles: 1 to 100 μM peptide, SCT-I at pH 7.4 or pH 3.0; for N, upper limit of bound peptide per vesicle / Kd: 7×10^-4 M lecithin; for N, upper limit of bound peptide per vesicle: pH 7.4; for Kd: pH 7.4, 45 min at 21° C., read-out: K, dissociation constant for vesicle binding; for A∞·N product: A∞ from the monolayer studies in Example 7
Description: Egg lecithin single bilayer vesicles (SBVs) were prepared by rapid injection of an ethanolic egg yolk lecithin (Avanti Polar-Lipids Inc., Birmingham, AL) solution into aqueous 0.16M KCl by the method of Batzri, S. and E. D. Korn, Biochim. Biophys. Acta 298:1015(1973) and purified by filtration through a 2.5 cm×87 cm column of Fractogel TSK HW-75(F)™ (Pierce Chemical Co., Rockford, IL). After purification, vesicles were characterized by gel filtration through a 1.5 cm×40 cm column of Sepharose CL-4B™ (Pharmacia Fine Chemicals) by the method of Batzri and Korn, supra. The concentration of vesicles in stock solutions were determined by the phosphate assay of Ames, B. N. and D. T. Dubin, J. Biol. Chem. 235:769(1960). In a typical binding experiment, varying concentrations of peptide were incubated for 45 min at 21° C. with vesicles (7×10^-4 M lecithin) in 0.02M sodium phosphate buffer, pH 7.4 containing 0.16M KCl in a total volume of 300 μl for 45 min. Free peptide was separated from vesicle-bound peptide by rapid filtration through a 1.4 cm×6.3 cm column of Sepharose CL-6B™ (Pharmacia Fine Chemicals) using the same buffer as above the eluent. The concentration of peptide in each fraction was determined using fluorescamine after first disrupting the vesicles with isopropanol (20% by volume).
The data for MCT-I and MCT-II were analyzed according to the equation Pf =(N·V·Pf /Pb)-K (Adamson, A. W., Physical Chemistry of Surfaces, 3rd Ed. (Wiley Interscience, New York, 1976), p. 388), where Pf and Pb are the concentration of free and bound peptide respectively, V is the initial molarity of vesicles (3200 phospholipids per vesicle), N is the upper limit of Pf /V, and K is the dissociation constant. Plots of V·Pf /Pb versus Pf were linear and gave K=12.9±4.8 μM with N=50±5 for MCT-I and K=6.7±1.7 μM, N= 68±2 for MCT-II. The product, A.infin. ·N, where A.infin. was obtained from the monolayer studies in Example 7, are nearly the same (A.infin. ·N(MCT-I) =2.2±0.2×10^4 Å^2, A.infin. ·N(MCT-II) =2.5±0.1×10^4 Å^2), accounting for the difference in observed values of N. A.infin. ·N is also in reasonable agreement with estimates of the available surface area between the phospholipid head groups of 230 Å diameter vesicles (1.8±0.6×10^4 Å^2; Kupferberg, J. P., S. Yokoyama, and F. J. Kezdy, J. Biol. Chem. 256:6274(1981)).

Structure (SMILES)	Stabilization energy per monomer for trimerization [1] [kcal/mol]	α-helix of the monomer ([1]; monomer) [%]	Dissociation constant (Kd) for the oligomer ([1]; monomer/trimer equilibrium)	[θ]222 for the monomer ([1]; monomer, 0.02M sodium phosphate pH 7.4, 0.16M KCl)	α-helix of the trimer ([1]; trimer) [%]	[θ]222 for the trimer ([1]; trimer, 0.02M sodium phosphate pH 7.4, 0.16M KCl)	Adsorption to the surface of single bilayer egg lecithin vesicles [2]	N, upper limit of bound peptide per vesicle [2]	Kd [2] [µM]	A∞·N product [2]	α-helicity estimated from [θ]222 ([1]; 0.02M sodium phosphate, 0.16M KCl, pH 7.4) [%]	Mean residue molar ellipticity at 222 nm, [θ]222 ([1]; 0.02M sodium phosphate, 0.16M KCl, pH 7.4, constant from 10^-7 M to 10^-4 M)	α-helicity in 50% trifluoroethanol ([1]; 5×10^-5 M peptide) [%]
CC(C)C[C@H](NC(=O)[C@H](CCCCN)NC(=O)[C@H](CCC(N)=O)NC(=O)[C@H](CC(C)C)NC(=O)[C@H](CCC(N)=O)NC(=O)[C@H](CCC(N)=O)NC(=O)[C@H](CC(C)C)NC(=O)[C@H](CC(C)C)NC(=O)[C@@H]1CSSC[C@H](N)C(=O)N[C@@H](CO)C(=O)N[C@@H](CC(N)=O)C(=O)N[C@@H](CC(C)C)C(=O)N[C@@H](CO)C(=O)N[C@@H]([C@@H](C)O)C(=O)N1)C(=O)N[C@@H](CC(C)C)C(=O)N[C@@H](CCC(N)=O)C(=O)N[C@@H](CCCCN)C(=O)N[C@@H](CC(C)C)C(=O)N[C@@H](CCCCN)C(=O)N[C@@H](CCC(N)=O)C(=O)N[C@@H](Cc1ccc(O)cc1)C(=O)N1CCC[C@H]1C(=O)N[C@@H](CCCNC(=N)N)C(=O)N[C@H](C(=O)N[C@@H](CC(N)=O)C(=O)N[C@H](C(=O)NCC(=O)N[C@@H](CO)C(=O)NCC(=O)N[C@H](C(=O)N1CCC[C@H]1C(N)=O)[C@@H](C)O)[C@@H](C)O)[C@@H](C)O [MCT-II] (H-CSNLSTCLLQQLQKLLQKLKQYPRTNTGSGTP-NH2; disulfide 1-7; N-terminus assumed)	4.5	20	5.06×10^-11 M^2	-5,200 deg.cm^2 /dmol	35	-10,475 deg.cm^2 /dmol	adsorb to the surface	68±2	6.7 ± 1.7	2.5±0.1×10^4 Å^2			
CC(C)C[C@@H]1NC(=O)[C@H](CC(N)=O)NC(=O)CNC(=O)[C@@H](N)CSSC[C@@H](C(=O)N[C@@H](CC(C)C)C(=O)N[C@@H](CC(C)C)C(=O)N[C@@H](CCC(N)=O)C(=O)N[C@@H](CCC(N)=O)C(=O)N[C@@H](Cc2c[nH]c3ccccc23)C(=O)N[C@@H](CCC(N)=O)C(=O)N[C@@H](CCCCN)C(=O)N[C@@H](CC(C)C)C(=O)N[C@@H](CC(C)C)C(=O)N[C@@H](CCC(N)=O)C(=O)N[C@@H](CCCCN)C(=O)N[C@@H](CC(C)C)C(=O)N[C@@H](CCCCN)C(=O)N[C@@H](CCC(N)=O)C(=O)N[C@@H](CC(C)C)C(=O)N2CCC[C@H]2C(=O)N[C@@H](CCCNC(=N)N)C(=O)N[C@H](C(=O)N[C@@H](CC(N)=O)C(=O)N[C@H](C(=O)NCC(=O)N[C@@H](CO)C(=O)NCC(=O)N[C@H](C(=O)N2CCC[C@H]2C(N)=O)[C@@H](C)O)[C@@H](C)O)[C@@H](C)O)NC(=O)[C@H]([C@@H](C)O)NC(=O)[C@H](CO)NC1=O [MCT-I] (H-CGNLSTCLLQQWQKLLQKLKQLPRTNTGSGTP-NH2; disulfide 1-7)							adsorb to the surface	50±5	12.9 ± 4.8	2.2±0.2×10^4 Å^2	30	-7,800 deg.cm^2 /dmol	50

Source: US4663309A, “Novel peptide hormones with calcitonin-like activity” (University Patents, Inc., priority 1985, dated 1987)
